Results: article PMC7774954, “Interactomic affinity profiling by holdup assay: Acetylation and distal residues impact the PDZome-binding specificity of PTEN phosphatase” (PLoS ONE, 2020)
*1 amine or outer side, *2 acyl side, *3 side chain or, on linkers, in order; H or OH if unused. Where a SMILES comes first, the peptide text is derived from it. The star is where a group is joined. X1 = O=C(CCCC[C@@H]1SC[C@@H]2NC(=O)N[C@@H]21)NCCCOCCOCCOCCCN*; Suc = O=C(CCC(=O)[*:2])[*:1]

Key:
[1] = tested on: LNX1-3; experiment: Holdup assay, LNX1-3; format: binding, human
[2] = target: LRRC7-1 (Homo sapiens, UniProt Q96NW7); experiment: Holdup assay, LRRC7-1; format: binding
LRRC7-1, sequence (Q96NW7 with tags, fused parts or gaps): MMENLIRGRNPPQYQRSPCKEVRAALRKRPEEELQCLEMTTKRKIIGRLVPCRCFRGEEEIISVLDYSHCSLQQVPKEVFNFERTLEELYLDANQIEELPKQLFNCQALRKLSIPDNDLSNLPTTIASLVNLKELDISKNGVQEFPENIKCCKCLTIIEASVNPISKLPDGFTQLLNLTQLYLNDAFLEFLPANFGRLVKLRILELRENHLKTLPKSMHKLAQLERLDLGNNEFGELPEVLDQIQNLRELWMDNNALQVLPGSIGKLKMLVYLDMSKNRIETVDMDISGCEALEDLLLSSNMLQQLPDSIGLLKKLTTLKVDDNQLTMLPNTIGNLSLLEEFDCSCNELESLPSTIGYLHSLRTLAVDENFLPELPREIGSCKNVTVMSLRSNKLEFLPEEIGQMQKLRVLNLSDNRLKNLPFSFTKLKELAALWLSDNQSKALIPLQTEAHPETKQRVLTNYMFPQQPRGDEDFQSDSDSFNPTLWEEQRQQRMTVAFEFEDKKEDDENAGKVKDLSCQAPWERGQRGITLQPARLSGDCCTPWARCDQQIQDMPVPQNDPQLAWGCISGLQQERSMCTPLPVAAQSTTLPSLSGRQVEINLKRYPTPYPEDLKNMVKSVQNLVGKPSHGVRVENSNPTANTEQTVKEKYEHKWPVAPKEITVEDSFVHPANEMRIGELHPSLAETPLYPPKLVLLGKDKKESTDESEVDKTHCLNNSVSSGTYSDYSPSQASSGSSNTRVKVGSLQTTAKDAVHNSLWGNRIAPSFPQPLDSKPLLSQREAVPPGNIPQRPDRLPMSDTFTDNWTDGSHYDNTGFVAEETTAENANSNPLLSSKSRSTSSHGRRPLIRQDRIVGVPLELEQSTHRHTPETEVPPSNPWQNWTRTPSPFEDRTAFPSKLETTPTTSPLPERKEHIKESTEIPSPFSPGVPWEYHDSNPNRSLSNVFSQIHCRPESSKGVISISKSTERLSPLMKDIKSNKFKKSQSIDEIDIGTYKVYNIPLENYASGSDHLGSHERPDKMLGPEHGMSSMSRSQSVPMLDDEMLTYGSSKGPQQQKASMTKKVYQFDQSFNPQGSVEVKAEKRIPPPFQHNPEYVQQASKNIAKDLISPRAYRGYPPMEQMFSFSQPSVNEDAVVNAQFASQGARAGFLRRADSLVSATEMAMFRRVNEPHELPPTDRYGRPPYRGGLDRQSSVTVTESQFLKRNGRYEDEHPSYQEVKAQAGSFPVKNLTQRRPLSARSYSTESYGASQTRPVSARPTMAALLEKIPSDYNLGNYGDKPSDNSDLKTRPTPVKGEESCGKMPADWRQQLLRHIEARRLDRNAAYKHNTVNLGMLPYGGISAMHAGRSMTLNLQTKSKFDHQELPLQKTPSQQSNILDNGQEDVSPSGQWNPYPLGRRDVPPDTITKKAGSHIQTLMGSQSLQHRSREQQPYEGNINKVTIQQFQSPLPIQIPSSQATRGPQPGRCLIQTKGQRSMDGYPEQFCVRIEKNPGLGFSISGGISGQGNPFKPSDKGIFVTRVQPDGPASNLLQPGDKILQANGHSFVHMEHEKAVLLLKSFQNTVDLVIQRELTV

[3] = target: T1, MAGI3-6 (Homo sapiens, UniProt Q5TCQ9); experiment: Holdup assay, MAGI3-6; format: binding
T1 sequence (Q5TCQ9 1-1481): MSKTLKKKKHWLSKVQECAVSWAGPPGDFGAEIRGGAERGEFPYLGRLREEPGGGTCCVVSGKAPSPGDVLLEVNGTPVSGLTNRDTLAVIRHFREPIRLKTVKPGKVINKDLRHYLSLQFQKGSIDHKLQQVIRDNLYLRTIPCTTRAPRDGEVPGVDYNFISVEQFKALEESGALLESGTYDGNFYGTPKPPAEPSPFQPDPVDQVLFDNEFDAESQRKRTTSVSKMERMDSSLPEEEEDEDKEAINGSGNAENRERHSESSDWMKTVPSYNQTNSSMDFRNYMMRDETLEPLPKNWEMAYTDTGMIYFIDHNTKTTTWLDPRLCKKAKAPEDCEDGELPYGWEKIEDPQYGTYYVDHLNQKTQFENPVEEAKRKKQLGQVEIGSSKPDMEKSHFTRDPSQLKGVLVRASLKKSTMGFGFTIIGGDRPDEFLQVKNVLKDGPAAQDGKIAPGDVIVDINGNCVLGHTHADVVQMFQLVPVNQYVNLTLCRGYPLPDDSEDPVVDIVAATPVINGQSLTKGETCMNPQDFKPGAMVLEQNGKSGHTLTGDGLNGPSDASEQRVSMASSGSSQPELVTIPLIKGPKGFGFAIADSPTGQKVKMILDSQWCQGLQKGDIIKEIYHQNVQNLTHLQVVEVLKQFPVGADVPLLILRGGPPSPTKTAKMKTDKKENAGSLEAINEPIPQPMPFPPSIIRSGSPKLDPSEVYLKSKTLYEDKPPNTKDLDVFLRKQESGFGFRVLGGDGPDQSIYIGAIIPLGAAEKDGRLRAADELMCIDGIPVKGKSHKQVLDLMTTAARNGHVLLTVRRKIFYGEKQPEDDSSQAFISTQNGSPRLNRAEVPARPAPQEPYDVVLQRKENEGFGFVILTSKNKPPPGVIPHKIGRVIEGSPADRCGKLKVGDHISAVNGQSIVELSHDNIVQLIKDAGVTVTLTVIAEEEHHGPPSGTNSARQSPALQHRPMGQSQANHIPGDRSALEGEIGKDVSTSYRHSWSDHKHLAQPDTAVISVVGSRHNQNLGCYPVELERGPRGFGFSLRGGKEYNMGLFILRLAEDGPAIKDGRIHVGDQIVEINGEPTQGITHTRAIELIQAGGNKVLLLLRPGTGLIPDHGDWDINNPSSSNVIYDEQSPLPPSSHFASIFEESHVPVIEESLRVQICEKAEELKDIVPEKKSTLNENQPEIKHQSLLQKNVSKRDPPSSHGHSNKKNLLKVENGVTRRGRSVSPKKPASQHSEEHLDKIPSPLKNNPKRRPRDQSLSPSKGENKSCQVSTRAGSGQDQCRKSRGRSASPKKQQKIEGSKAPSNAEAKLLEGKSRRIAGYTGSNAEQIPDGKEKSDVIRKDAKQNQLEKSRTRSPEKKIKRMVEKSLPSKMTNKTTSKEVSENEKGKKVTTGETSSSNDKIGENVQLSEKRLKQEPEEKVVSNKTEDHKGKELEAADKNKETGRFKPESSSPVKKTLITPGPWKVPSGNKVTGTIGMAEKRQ

[4] = target: INADL-7 (Homo sapiens, UniProt Q8NI35); experiment: Holdup assay, INADL-7; format: binding
INADL-7, sequence (Q8NI35 whole entry, the tested form may be a part): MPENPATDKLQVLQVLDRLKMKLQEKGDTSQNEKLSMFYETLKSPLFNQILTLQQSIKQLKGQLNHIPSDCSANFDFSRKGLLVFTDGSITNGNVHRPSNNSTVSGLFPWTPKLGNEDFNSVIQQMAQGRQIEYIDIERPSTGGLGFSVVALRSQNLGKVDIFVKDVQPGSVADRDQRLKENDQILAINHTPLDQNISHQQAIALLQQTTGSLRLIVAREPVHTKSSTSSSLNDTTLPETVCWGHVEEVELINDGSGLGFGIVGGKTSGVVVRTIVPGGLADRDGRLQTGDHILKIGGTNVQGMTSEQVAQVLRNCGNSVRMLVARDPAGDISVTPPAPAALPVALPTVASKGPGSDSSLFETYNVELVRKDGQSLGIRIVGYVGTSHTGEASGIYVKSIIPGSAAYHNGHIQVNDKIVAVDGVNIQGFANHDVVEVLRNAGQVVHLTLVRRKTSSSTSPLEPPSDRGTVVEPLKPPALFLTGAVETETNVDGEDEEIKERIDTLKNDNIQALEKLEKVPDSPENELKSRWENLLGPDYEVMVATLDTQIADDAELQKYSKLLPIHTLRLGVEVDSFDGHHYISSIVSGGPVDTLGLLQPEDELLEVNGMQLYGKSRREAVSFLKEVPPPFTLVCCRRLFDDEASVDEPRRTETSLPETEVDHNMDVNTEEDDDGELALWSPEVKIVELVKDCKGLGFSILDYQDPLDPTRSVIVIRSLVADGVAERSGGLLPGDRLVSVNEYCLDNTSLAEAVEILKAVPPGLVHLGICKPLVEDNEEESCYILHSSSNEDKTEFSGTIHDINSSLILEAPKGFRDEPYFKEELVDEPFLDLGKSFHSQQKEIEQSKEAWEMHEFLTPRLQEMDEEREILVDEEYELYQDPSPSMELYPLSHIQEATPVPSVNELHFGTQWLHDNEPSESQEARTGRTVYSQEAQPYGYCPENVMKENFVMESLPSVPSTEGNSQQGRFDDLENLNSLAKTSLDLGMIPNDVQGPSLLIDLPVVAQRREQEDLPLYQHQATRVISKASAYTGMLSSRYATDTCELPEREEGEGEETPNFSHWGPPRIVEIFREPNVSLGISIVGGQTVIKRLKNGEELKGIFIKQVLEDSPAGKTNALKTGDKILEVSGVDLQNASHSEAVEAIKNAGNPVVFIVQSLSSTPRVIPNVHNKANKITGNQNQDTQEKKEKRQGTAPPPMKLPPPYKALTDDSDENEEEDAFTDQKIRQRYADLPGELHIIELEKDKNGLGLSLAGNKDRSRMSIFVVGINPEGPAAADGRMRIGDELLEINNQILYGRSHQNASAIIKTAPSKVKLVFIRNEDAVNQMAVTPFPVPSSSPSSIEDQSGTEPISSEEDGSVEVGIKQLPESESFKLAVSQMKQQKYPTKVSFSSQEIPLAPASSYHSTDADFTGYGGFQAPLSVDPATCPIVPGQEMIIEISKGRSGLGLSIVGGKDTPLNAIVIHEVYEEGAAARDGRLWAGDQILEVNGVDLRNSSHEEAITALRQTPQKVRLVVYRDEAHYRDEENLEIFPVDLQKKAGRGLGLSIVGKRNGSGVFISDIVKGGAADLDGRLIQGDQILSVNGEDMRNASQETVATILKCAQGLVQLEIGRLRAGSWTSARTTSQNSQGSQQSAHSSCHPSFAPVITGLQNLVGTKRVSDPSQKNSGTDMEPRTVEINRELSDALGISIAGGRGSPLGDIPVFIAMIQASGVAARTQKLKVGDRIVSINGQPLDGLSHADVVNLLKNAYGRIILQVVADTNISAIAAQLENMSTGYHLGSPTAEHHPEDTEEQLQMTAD

[5] = target: T2, PTPN13 PDZ 2 (Homo sapiens, UniProt Q12923); experiment: Holdup assay, PTPN13-2; format: binding; settings: for BI: PDZ domain PTPN13-2
T2 construct: made in house; host or cells: E. coli
T2 sequence (Q12923 1368-1452 limits assumed): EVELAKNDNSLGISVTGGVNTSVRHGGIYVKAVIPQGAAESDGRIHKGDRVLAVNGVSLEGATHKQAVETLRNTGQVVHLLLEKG
Method: (§1) The holdup assay was performed on a Tecan freedom Evo200 robot with 384-well plates in singlicate for the three 11-mer PTEN variants and the 13-mer PTEN peptide as described in [31, 32]. Briefly, prior to interaction assay, 2.5 μL of streptavidin resin was saturated in each well with 20 μL of biotinylated PBM peptides (42 μM) and then washed twice with an excess of free biotin, while the reference resin was incubated only with biotin. Right before the holdup experiment, the PDZ library was spiked with an internal standard of lysozyme. Then, the biotin- or PBM-saturated resin was incubated, each in a distinct well of a 384-well plate, with complete cell lysates diluted so that the concentration of the tag-PDZ present in the crude extract is adjusted at 4 μM. After a sufficient time to reach complex equilibrium (15 min.), a fast and mild filtration step is performed and the tag-PDZ concentrations were measured by capillary electrophoresis instrument (LabChip GXII, PerkinElmer, Massachusets, USA). Standard markers were used to convert migration time into molecular weight on the LabChip software and inappropriate molecular weight markers were corrected or excluded.
(§2) For filtered data, the BI was extracted with the following equation (Eq 1) that estimates the depleted fraction after superimposition of the sample and reference electropherograms: BI=Iref−Ilig/Iref (1) where Iref and Ilig are the intensities of the tag-PDZ peaks measured, for each PDZ domain/PBM peptide interaction pair, in the biotin reference and the PBM electropherograms, respectively.
(§3) BIs were transformed into dissociation constants (KD) using the following formula: KD=([PDZtot]−BI·[PDZtot])·([PBMtot]−BI·[PDZtot])/BI·[PDZtot] (2) where [PDZtot] and [PBMtot] correspond to the total concentrations of the PDZ domain (usually around 4 μM) and the PBM peptide used during the assay. Since the PBMtot concentration in the resin during the holdup assay parameter may differ from one peptide to another and remains unknown, it is impossible to directly convert BI values into KD constants. We systematically determined the KD constants for a subset of PDZ/PBM pairs by competitive FP. […] For each PBM, the average peptide concentration was calculated after outlier rejection based on the absolute distances from the median as compared to three times the standard deviation (3σ rule), with never more than 2 values rejected.

[6] = tested on: MAST4-1; experiment: Holdup assay, MAST4-1; format: binding, human
[7] = target: T3, SNTB2 PDZ 1 (Homo sapiens, UniProt Q13425); experiment: Holdup assay, SNTB2-1; format: binding; settings: for BI: PDZ domain SNTB2-1
T3 construct: made in house; host or cells: E. coli
T3 sequence (Q13425 115-198 limits assumed): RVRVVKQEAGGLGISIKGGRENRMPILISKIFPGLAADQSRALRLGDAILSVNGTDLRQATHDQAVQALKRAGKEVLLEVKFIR
Method: as §1, §2, §3

[8] = tested on: MAGI3-3; experiment: Holdup assay, MAGI3-3; format: binding, human

SMILES | BI [1] | LogKD [1] | BI [2] | LogKD [2] | BI [3] | LogKD [3] | BI [4] | BI [5] | BI [6] | LogKD [6] | BI [7] | BI [8] | LogKD [8] | Kd [3] | Kd [4] | LogKD [4] | Kd [5] | Kd [7]
CC[C@H](C)[C@H](NC(=O)[C@H](CCC(N)=O)NC(=O)[C@@H](NC(=O)[C@H](Cc1c[nH]cn1)NC(=O)[C@H](CCC(N)=O)NC(=O)[C@H](CC(=O)O)NC(=O)[C@H](CCC(=O)O)NC(=O)[C@H](CC(=O)O)NC(=O)CCC(=O)NCCCOCCOCCOCCCNC(=O)CCCC[C@@H]1SC[C@@H]2NC(=O)N[C@@H]21)[C@@H](C)O)C(=O)N[C@H](C(=O)N[C@@H](CCCCN)C(=O)N[C@H](C(=O)O)C(C)C)[C@@H](C)O [PTEN_11] | -0.02 | 3.519 | 0.078 | 3.519 | 0.071 | 3.519 | 0.136 | 0.184 | -0.08 | 3.519 | 0.023 | -0.099 | 3.519 | – | – | – | – | –
CC[C@H](C)[C@H](NC(=O)[C@H](CCC(N)=O)NC(=O)[C@@H](NC(=O)[C@H](Cc1c[nH]cn1)NC(=O)[C@H](CCC(N)=O)NC(=O)[C@H](CC(=O)O)NC(=O)[C@H](CCC(=O)O)NC(=O)[C@H](CC(=O)O)NC(=O)CCC(=O)NCCCOCCOCCOCCCNC(=O)CCCC[C@@H]1SC[C@@H]2NC(=O)N[C@@H]21)[C@@H](C)O)C(=O)N[C@H](C(=O)N[C@@H](CCCCNC(C)=O)C(=O)N[C@H](C(=O)O)C(C)C)[C@@H](C)O [PTEN_Ac] | 0.072 | 3.605 | -0.028 | 3.605 | 0.251 | – | 0.306 | 0.044 | -0.003 | 3.605 | – | -0.079 | 3.605 | 80.6 µM | 60.7 µM | – | – | –
CC[C@H](C)[C@H](NC(=O)[C@H](CCC(N)=O)NC(=O)[C@@H](NC(=O)[C@H](Cc1c[nH]cn1)NC(=O)[C@H](CCC(N)=O)NC(=O)[C@H](CC(=O)O)NC(=O)[C@H](CCC(=O)O)NC(=O)[C@H](CC(=O)O)NC(=O)CCC(=O)NCCCOCCOCCOCCCNC(=O)CCCC[C@@H]1SC[C@@H]2NC(=O)N[C@@H]21)[C@@H](C)O)C(=O)N[C@H](C(=O)N[C@@H](CCCNC(=N)N)C(=O)N[C@H](C(=O)O)C(C)C)[C@@H](C)O [PTEN_KR] ({X1-Suc}-DEDQHTQITRV-OH) | – | – | 0.14 | – | 0.067 | 3.655 | 0.176 | 0.138 | -0.027 | 3.655 | 0.009 | -0.043 | 3.655 | – | – | – | – | –
CC[C@H](C)[C@H](NC(=O)[C@H](CCC(N)=O)NC(=O)[C@@H](NC(=O)[C@H](Cc1c[nH]cn1)NC(=O)[C@H](CCC(N)=O)NC(=O)[C@H](CC(=O)O)NC(=O)[C@H](CCC(=O)O)NC(=O)[C@H](CC(=O)O)NC(=O)[C@H](Cc1ccccc1)NC(=O)[C@@H]1CCCN1C(=O)CCC(=O)NCCCOCCOCCOCCCNC(=O)CCCC[C@@H]1SC[C@@H]2NC(=O)N[C@@H]21)[C@@H](C)O)C(=O)N[C@H](C(=O)N[C@@H](CCCCN)C(=O)N[C@H](C(=O)O)C(C)C)[C@@H](C)O [PTEN_13] ({X1-Suc}-PFDEDQHTQITKV-OH) | 0.016 | – | 0.042 | 3.826 | 0.044 | 3.826 | 0.07 | 0.482 | 0.058 | – | 0.202 | -0.03 | – | – | – | 3.826 | 16.2 µM | 64 µM
